Measurements published in US20100130604A1, “USE OF ROSMARINIC ACID IN MANUFACTURE OF MEDICAMENTS FOR TREATING OR PREVENTING HEPATIC AND RENAL DISEASES” (SHANGDONG LUYE NATURAL DRUG RESEARCH AND DEVELOPMENT CO., …, priority 2006, published 2010).

Assays:
[1] = test system: rats with diabetic nephropathy; experiment: Diabetic nephropathy in rats (left nephrectomy + streptozocin); assay type: in vivo, Sprague Dawley rats; conditions: for creatinine: serum
Procedure: After 1 week-long acclimation period, animals were anaesthetised with 10% chloral hydrate (0.35 mL/100 g, i.p.) and nephrectomy was exercised to the left kidney. One week later, a single dose of 1% of streptozocin solution was i.v. injected to all animals at 60 mg/kg. After 72h, blood was collected from eyepit to test blood glucose level with the above-mentioned kit. The model was considered successful when blood glucose level >16.7 mmol/L. When the model is established, 130 rats were randomly divided into 13 groups, with 10 animals in each group, namely, a normal control group, a model group, benzanapril p.o. Group at 10 mg/kg, RA i.v. groups at 2.5 mg/kg, 5 mg/kg, 25 mg/kg, 75 mg/kg, and 150 mg/kg of RA, and RA p.o. groups at 5 mg/kg, 10 mg/kg, 50 mg/kg, 150 mg/kg, and 300 mg/kg of RA. The drugs were administered once every day. Blood was collected from eyepit at week 8 and week 16 to determine serum levels of creatinine and urea nitrogen. Urinary protein excretion within 24 hours was also studied. The animals were sacrificed 24 hours after the last dose and kidney removed for histopathological examination.

CTGF = experiment: Western blot of intracellular CTGF protein expression in PTECs; assay type: cell-based; conditions: for CTGF expression: 72 h, relative OD of band
Procedure: Western blot method was used to detect intracellular CTGF expression. PTEC cells at logarithmic phase were seeded to 96-well plate at the density of 1×10^5/mL. The medium was replaced with serum-free DMEM 24 hours later and the cell culture was cultured statically for 24 hours. Treat the wells as mentioned above. 72 hours later, cellular protein was extracted from the cell lysate according to modified Lowry method (Peterson G L. A simplification of the protein assay method of Lowry et al, which is more generally applicable. Anal Biochem, 1977, 83:346). 75 μg of total protein was loaded on each lane and all lanes were subject to 12% SDS-PAGE before the protein was transferred onto nitrocellulose membrane. Dye with Ponceau S (Sigma) to confirm transference and mark relative molecular weight standards. The membrane was then blocked in 5% solution of skimmed milk powder in TBST for 1 hour at room temperature. After washing, multiclonal goat-anti-rat anti-CTGF antibody (1:500, from Santa Cruz Co. Ltd.) was added and incubated overnight at 4° C. Then HRP-labeled anti-goat IgG secondary antibody (1:2 500, from Santa Cruz Co. Ltd.) was added and incubated at 37° C. for 1 hour. After rinsing, develop with 3,3-diaminobenzidine (DAB). Relative OD values of each band were analysed and the data are presented as χ±s. SPSS software was used in statistical analysis. ANOVA was applied for multi-group comparison.

**Q.** What does the source list for O=C(/C=C/c1ccc(O)c(O)c1)O[C@H](Cc1ccc(O)c(O)c1)C(=O)O [RA, R(+)2-{[3-(3,4-dihydroxylphenyl-(oxo-2-propenyl)oxy]3,4-dihydroxylphenylpropionic acid]}]?
**A.** 24 h urinary protein excretion ([1]; 8 weeks, i.v. 2.5 mg/kg): 20.29 ± 2.21 mg/24 h; Blood glucose ([1]; 8 weeks, i.v. 2.5 mg/kg): 21.23 ± 5.66 mmol/L; Serum urea nitrogen ([1]; 8 weeks, i.v. 2.5 mg/kg): 18.01 ± 1.62 mg/dL; 24 h urinary protein excretion ([1]; 8 weeks, i.v. 5 mg/kg): 19.19 ± 2.15 mg/24 h; Blood glucose ([1]; 8 weeks, i.v. 5 mg/kg): 21.02 ± 6.14 mmol/L; Serum urea nitrogen ([1]; 8 weeks, i.v. 5 mg/kg): 17.91 ± 1.80 mg/dL; 24 h urinary protein excretion ([1]; 8 weeks, i.v. 25 mg/kg): 17.59 ± 2.12 mg/24 h; Blood glucose ([1]; 8 weeks, i.v. 25 mg/kg): 21.15 ± 5.74 mmol/L; Serum urea nitrogen ([1]; 8 weeks, i.v. 25 mg/kg): 15.42 ± 3.36 mg/dL; 24 h urinary protein excretion ([1]; 8 weeks, i.v. 75 mg/kg): 16.78 ± 2.52 mg/24 h; Blood glucose ([1]; 8 weeks, i.v. 75 mg/kg): 21.03 ± 4.74 mmol/L; Serum urea nitrogen ([1]; 8 weeks, i.v. 75 mg/kg): 14.76 ± 2.19 mg/dL; 24 h urinary protein excretion ([1]; 8 weeks, i.v. 150 mg/kg): 16.39 ± 2.25 mg/24 h; Blood glucose ([1]; 8 weeks, i.v. 150 mg/kg): 21.23 ± 5.54 mmol/L; Serum urea nitrogen ([1]; 8 weeks, i.v. 150 mg/kg): 13.87 ± 1.75 mg/dL; 24 h urinary protein excretion ([1]; 8 weeks, p.o. 5 mg/kg): 20.59 ± 2.34 mg/24 h; Blood glucose ([1]; 8 weeks, p.o. 5 mg/kg): 21.23 ± 6.36 mmol/L; Serum urea nitrogen ([1]; 8 weeks, p.o. 5 mg/kg): 19.37 ± 3.85 mg/dL; 24 h urinary protein excretion ([1]; 8 weeks, p.o. 10 mg/kg): 19.11 ± 2.19 mg/24 h; Blood glucose ([1]; 8 weeks, p.o. 10 mg/kg): 20.87 ± 6.55 mmol/L; Serum urea nitrogen ([1]; 8 weeks, p.o. 10 mg/kg): 17.57 ± 2.70 mg/dL; 24 h urinary protein excretion ([1]; 8 weeks, p.o. 50 mg/kg): 17.89 ± 2.64 mg/24 h; Blood glucose ([1]; 8 weeks, p.o. 50 mg/kg): 21.07 ± 5.46 mmol/L; Serum urea nitrogen ([1]; 8 weeks, p.o. 50 mg/kg): 15.96 ± 1.95 mg/dL; 24 h urinary protein excretion ([1]; 8 weeks, p.o. 150 mg/kg): 17.18 ± 2.56 mg/24 h; Blood glucose ([1]; 8 weeks, p.o. 150 mg/kg): 21.32 ± 6.44 mmol/L; Serum urea nitrogen ([1]; 8 weeks, p.o. 150 mg/kg): 14.76 ± 2.65 mg/dL; 24 h urinary protein excretion ([1]; 8 weeks, p.o. 300 mg/kg): 16.89 ± 2.75 mg/24 h; Blood glucose ([1]; 8 weeks, p.o. 300 mg/kg): 20.97 ± 5.54 mmol/L; Serum urea nitrogen ([1]; 8 weeks, p.o. 300 mg/kg): 14.42 ± 2.90 mg/dL; 24 h urinary protein excretion ([1]; 16 weeks, i.v. 2.5 mg/kg): 60.96 ± 6.85 mg/24 h; Blood glucose ([1]; 16 weeks, i.v. 2.5 mg/kg): 22.02 ± 5.34 mmol/L; Serum urea nitrogen ([1]; 16 weeks, i.v. 2.5 mg/kg): 33.91 ± 3.60 mg/dL; 24 h urinary protein excretion ([1]; 16 weeks, i.v. 5 mg/kg): 57.28 ± 8.46 mg/24 h; Blood glucose ([1]; 16 weeks, i.v. 5 mg/kg): 22.15 ± 4.24 mmol/L; Serum urea nitrogen ([1]; 16 weeks, i.v. 5 mg/kg): 30.42 ± 7.36 mg/dL; 24 h urinary protein excretion ([1]; 16 weeks, i.v. 25 mg/kg): 55.34 ± 7.67 mg/24 h; Blood glucose ([1]; 16 weeks, i.v. 25 mg/kg): 22.03 ± 4.59 mmol/L; Serum urea nitrogen ([1]; 16 weeks, i.v. 25 mg/kg): 26.76 ± 4.19 mg/dL; 24 h urinary protein excretion ([1]; 16 weeks, i.v. 75 mg/kg): 54.78 ± 7.96 mg/24 h; Blood glucose ([1]; 16 weeks, i.v. 75 mg/kg): 22.35 ± 7.28 mmol/L; Serum urea nitrogen ([1]; 16 weeks, i.v. 75 mg/kg): 23.07 ± 3.95 mg/dL; 24 h urinary protein excretion ([1]; 16 weeks, i.v. 150 mg/kg): 54.28 ± 7.46 mg/24 h; Blood glucose ([1]; 16 weeks, i.v. 150 mg/kg): 22.23 ± 6.24 mmol/L; Serum urea nitrogen ([1]; 16 weeks, i.v. 150 mg/kg): 22.57 ± 3.45 mg/dL; 24 h urinary protein excretion ([1]; 16 weeks, p.o. 5 mg/kg): 65.55 ± 8.71 mg/24 h; Blood glucose ([1]; 16 weeks, p.o. 5 mg/kg): 22.23 ± 5.66 mmol/L; Serum urea nitrogen ([1]; 16 weeks, p.o. 5 mg/kg): 39.37 ± 3.85 mg/dL; 24 h urinary protein excretion ([1]; 16 weeks, p.o. 10 mg/kg): 61.33 ± 6.65 mg/24 h; Blood glucose ([1]; 16 weeks, p.o. 10 mg/kg): 21.87 ± 5.55 mmol/L; Serum urea nitrogen ([1]; 16 weeks, p.o. 10 mg/kg): 38.37 ± 3.85 mg/dL; 24 h urinary protein excretion ([1]; 16 weeks, p.o. 50 mg/kg): 57.28 ± 8.46 mg/24 h; Blood glucose ([1]; 16 weeks, p.o. 50 mg/kg): 22.07 ± 4.46 mmol/L; Serum urea nitrogen ([1]; 16 weeks, p.o. 50 mg/kg): 34.57 ± 5.60 mg/dL; 24 h urinary protein excretion ([1]; 16 weeks, p.o. 150 mg/kg): 56.28 ± 8.76 mg/24 h; Blood glucose ([1]; 16 weeks, p.o. 150 mg/kg): 21.32 ± 6.34 mmol/L; Serum urea nitrogen ([1]; 16 weeks, p.o. 150 mg/kg): 28.96 ± 3.95 mg/dL; 24 h urinary protein excretion ([1]; 16 weeks, p.o. 300 mg/kg): 55.78 ± 9.46 mg/24 h; Blood glucose ([1]; 16 weeks, p.o. 300 mg/kg): 21.97 ± 5.34 mmol/L; Serum urea nitrogen ([1]; 16 weeks, p.o. 300 mg/kg): 27.76 ± 5.30 mg/dL; kidney pathological examination ([1]; RA treated groups vs model group): fewer lesions than the model group in a dose-dependent manner; creatinine ([1]; 8 weeks, i.v. 2.5 mg/kg): 0.91 ± 0.12 mg/dL; creatinine ([1]; 8 weeks, i.v. 5 mg/kg): 0.90 ± 0.09 mg/dL; creatinine ([1]; 8 weeks, i.v. 25 mg/kg): 0.75 ± 0.18 mg/dL; creatinine ([1]; 8 weeks, i.v. 75 mg/kg): 0.72 ± 0.15 mg/dL; creatinine ([1]; 8 weeks, i.v. 150 mg/kg): 0.69 ± 0.11 mg/dL; creatinine ([1]; 8 weeks, p.o. 5 mg/kg): 0.96 ± 0.09 mg/dL; creatinine ([1]; 8 weeks, p.o. 10 mg/kg): 0.88 ± 0.15 mg/dL; creatinine ([1]; 8 weeks, p.o. 50 mg/kg): 0.77 ± 0.13 mg/dL; creatinine ([1]; 8 weeks, p.o. 150 mg/kg): 0.75 ± 0.12 mg/dL; creatinine ([1]; 8 weeks, p.o. 300 mg/kg): 1.40 ± 0.28 mg/dL; creatinine ([1]; 16 weeks, i.v. 2.5 mg/kg): 1.60 ± 0.18 mg/dL; creatinine ([1]; 16 weeks, i.v. 5 mg/kg): 1.52 ± 0.37 mg/dL; creatinine ([1]; 16 weeks, i.v. 25 mg/kg): 1.32 ± 0.28 mg/dL; creatinine ([1]; 16 weeks, i.v. 75 mg/kg): 1.26 ± 0.28 mg/dL; creatinine ([1]; 16 weeks, i.v. 150 mg/kg): 1.20 ± 0.22 mg/dL; creatinine ([1]; 16 weeks, p.o. 5 mg/kg): 1.97 ± 0.19 mg/dL; creatinine ([1]; 16 weeks, p.o. 10 mg/kg): 1.92 ± 0.19 mg/dL; creatinine ([1]; 16 weeks, p.o. 50 mg/kg): 1.77 ± 0.28 mg/dL; creatinine ([1]; 16 weeks, p.o. 150 mg/kg): 1.53 ± 0.28 mg/dL; creatinine ([1]; 16 weeks, p.o. 300 mg/kg): 1.50 ± 0.26 mg/dL; serum creatinine, urea nitrogen, 24-hour urinary protein excretion ([1]; week 8 and week 16, i.v. 2.5, 5, 25, 75, 150 mg/kg, p.o. 5, 10, 50, 150, 300 mg/kg): can all significantly reduce serum creatinine and urea nitrogen levels as well as 24-hour urinary protein excretion; intracellular CTGF expression compared with the HG group (CTGF; 10 mg/L and 50 mg/L RA): significantly down-regulated; CTGF expression (CTGF; HG + 10 mg/L RA): 5244 ± 106; CTGF expression (CTGF; HG + 50 mg/L RA): 5345 ± 95
